This note sets out measurements from PMC9996622 (ACS Omega, 2023).

For the test, the target named is T1, DnaE1 (Mycobacterium tuberculosis, UniProt P9WNT7).
T1 sequence (P9WNT7 1-1184): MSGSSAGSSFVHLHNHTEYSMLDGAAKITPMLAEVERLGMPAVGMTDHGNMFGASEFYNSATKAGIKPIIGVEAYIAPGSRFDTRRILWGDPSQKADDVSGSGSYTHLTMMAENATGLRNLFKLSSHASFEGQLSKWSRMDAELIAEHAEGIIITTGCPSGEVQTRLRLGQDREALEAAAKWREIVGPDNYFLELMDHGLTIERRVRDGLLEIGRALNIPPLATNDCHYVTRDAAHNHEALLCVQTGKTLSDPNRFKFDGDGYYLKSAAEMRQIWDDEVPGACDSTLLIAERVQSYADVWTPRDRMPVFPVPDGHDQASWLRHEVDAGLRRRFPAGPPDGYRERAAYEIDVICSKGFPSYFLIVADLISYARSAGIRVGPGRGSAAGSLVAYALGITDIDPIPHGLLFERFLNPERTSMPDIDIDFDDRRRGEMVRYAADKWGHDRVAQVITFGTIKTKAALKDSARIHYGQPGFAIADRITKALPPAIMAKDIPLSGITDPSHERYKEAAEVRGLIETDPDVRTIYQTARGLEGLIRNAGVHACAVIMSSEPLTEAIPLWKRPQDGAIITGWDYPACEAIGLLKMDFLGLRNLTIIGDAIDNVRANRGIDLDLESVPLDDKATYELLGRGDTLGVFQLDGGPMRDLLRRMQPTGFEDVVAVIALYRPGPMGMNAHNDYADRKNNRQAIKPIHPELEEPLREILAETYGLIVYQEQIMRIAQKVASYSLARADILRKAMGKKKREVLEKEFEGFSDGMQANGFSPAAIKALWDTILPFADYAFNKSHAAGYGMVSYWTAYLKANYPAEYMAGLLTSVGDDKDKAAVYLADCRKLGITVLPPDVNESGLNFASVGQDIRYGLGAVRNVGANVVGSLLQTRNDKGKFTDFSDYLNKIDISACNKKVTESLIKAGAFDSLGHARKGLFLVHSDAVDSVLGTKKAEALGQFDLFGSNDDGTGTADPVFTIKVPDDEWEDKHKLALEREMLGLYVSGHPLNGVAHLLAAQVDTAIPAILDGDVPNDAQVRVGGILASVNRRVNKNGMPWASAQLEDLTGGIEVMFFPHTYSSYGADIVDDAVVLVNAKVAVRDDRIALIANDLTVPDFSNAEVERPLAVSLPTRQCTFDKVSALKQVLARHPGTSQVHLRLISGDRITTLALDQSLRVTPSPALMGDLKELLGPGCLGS
In words: 2-aminopurine fluorescence exonuclease assay, dose-response. The class given is biochemical.

One may read the IC50 as the midpoint of a concentration-inhibition curve. A lower IC50 goes with inhibition by little substance. Regarding `OC[C@H]1O[C@@H](n2cnc3c(S)ncnc32)[C@H](O)[C@@H]1O` [6-thioinosine], 64 µM corresponded to half-maximal inhibition (IC50).
